# Patent US20240000872A1, “NOVEL BACTERIOPHAGE THAT LYSES ACINETOBACTER GENUS BACTERIA HAVING RESISTANCE TO ANTIBIOTICS” (priority 2020, published 2024)
# Test system: Acinetobacter baumannii strains
# Assay: Antibiotic susceptibility test (CLSI disk diffusion test method, read per CLSI 2016)
# Type: cell-based
# Protocol: (§1) Strain identification was performed using a kit such as AT 32 GN system (bioMérieux, Marcy l'Etoile, France). […] In Table 2 below, S, I, and R are the results obtained by evaluating susceptibility to the antibacterial agents, in which ‘S’ means susceptible, ‘I’ means intermediate, and ‘R’ means resistant.
# as §1, with “as ATB” for “as AT”, “system (bioMédrieux,” for “system (bioMérieux,”, “Table 6” for “Table 2”
# as §1, with “as ATB” for “as AT”, “Table 10” for “Table 2”, “susceptible, T” for “susceptible, ‘I’”
smiles,measurement,setting,value
"CC(C)(O/N=C(\C(=O)N[C@@H]1C(=O)N2C(C(=O)[O-])=C(C[n+]3ccccc3)CS[C@H]12)c1csc(N)n1)C(=O)O [Ceftazidime, ceftazidime]",antibiotic susceptibility class,host strain YMC14/01/C29,R
same,antibiotic susceptibility class,host strain YMC14/01/IP122,R
same,antibiotic susceptibility class,host strain YMC14/01/L8,R
same,antibiotic susceptibility class,host strain YMC14/01/P31,R
same,antibiotic susceptibility class,host strain YMC14/01/P117,R
same,antibiotic susceptibility class,host strain YMC14/01/P224,R
same,antibiotic susceptibility class,host strain YMC14/01/P727,R
same,antibiotic susceptibility class,host strain YMC14/01/P728,R
same,antibiotic susceptibility class,host strain YMC14/01/R130,R
same,antibiotic susceptibility class,host strain YMC14/01/R160,R
same,antibiotic susceptibility class,host strain YMC14/01/R198,R
same,antibiotic susceptibility class,host strain YMC14/01/R257,R
same,antibiotic susceptibility class,host strain YMC14/01/R270,R
same,antibiotic susceptibility class,host strain YMC14/01/R324,R
same,antibiotic susceptibility class,host strain YMC14/01/R443,R
same,antibiotic susceptibility class,host strain YMC14/01/R451,R
same,antibiotic susceptibility class,host strain YMC14/01/R560,R
same,antibiotic susceptibility class,host strain YMC14/01/R617,I
same,antibiotic susceptibility class,host strain YMC14/01/R671,R
same,antibiotic susceptibility class,host strain YMC14/01/R732,R
same,antibiotic susceptibility class,host strain YMC14/01/R767,R
same,antibiotic susceptibility class,host strain YMC14/01/R904,R
same,antibiotic susceptibility class,host strain YMC14/01/R905,R
same,antibiotic susceptibility class,host strain YMC14/01/R921,R
same,antibiotic susceptibility class,host strain YMC14/01/R941,R
same,antibiotic susceptibility class,host strain YMC14/01/R958,R
same,antibiotic susceptibility class,host strain YMC14/01/R1006,R
same,antibiotic susceptibility class,host strain YMC14/01/R1199,R
same,antibiotic susceptibility class,host strain YMC14/01/R1659,R
same,antibiotic susceptibility class,host strain YMC14/01/R1722,R
same,antibiotic susceptibility class,host strain YMC14/01/R1752,R
same,antibiotic susceptibility class,host strain YMC14/01/R2429,R
same,antibiotic susceptibility class,host strain YMC14/01/R2572,R
same,antibiotic susceptibility class,host strain YMC14/01/R2855,R
same,antibiotic susceptibility class,host strain YMC14/01/R2945,R
same,antibiotic susceptibility class,host strain YMC14/01/R3007,R
same,antibiotic susceptibility class,host strain YMC14/01/R3129,R
same,antibiotic susceptibility class,host strain YMC14/01/R3317,R
same,antibiotic susceptibility class,host strain YMC14/01/R3474,R
same,antibiotic susceptibility class,host strain YMC14/01/R3574,R
same,antibiotic susceptibility class,host strain YMC14/01/U313,R
same,antibiotic susceptibility class,host strain YMC14/01/U318,R
same,antibiotic susceptibility class,host strain YMC14/02/L18,R
same,antibiotic susceptibility class,host strain YMC14/02/P47,R
same,antibiotic susceptibility class,host strain YMC14/02/R1860,R
same,antibiotic susceptibility class,host strain YMC14/02/R2417,R
same,antibiotic susceptibility class,host strain YMC14/02/R2599,R
same,antibiotic susceptibility class,host strain YMC14/02/R2668,R
same,antibiotic susceptibility class,host strain YMC14/02/R2758,R
same,antibiotic susceptibility class,host strain YMC14/02/R2781,R
same,antibiotic susceptibility class,host strain YMC14/02/R3106,R
same,antibiotic susceptibility class,host strain YMC14/02/R3419,R
same,antibiotic susceptibility class,host strain YMC14/02/U1607,R
same,antibiotic susceptibility class,host strain YMC14/03/L9,R
same,antibiotic susceptibility class,host strain YMC14/03/P471,R
same,antibiotic susceptibility class,host strain YMC14/03/R122,R
same,antibiotic susceptibility class,host strain YMC14/03/R217,R
same,antibiotic susceptibility class,host strain YMC14/03/R380,R
same,antibiotic susceptibility class,host strain YMC14/03/R618,R
same,antibiotic susceptibility class,host strain YMC14/03/R2144,R
same,antibiotic susceptibility class,host strain YMC14/03/U4616,R
same,antibiotic susceptibility class,host strain YMC14/04/R1078,R
same,antibiotic susceptibility class,host strain YMC14/04/R1080,R
same,antibiotic susceptibility S/I/R,host strain YMC14/06/R2359,R
same,susceptibility category (S/I/R),host strain YMC14/06/R2359,R
same,antibiotic susceptibility S/I/R,host strain YMC14/08/R1169,R
same,susceptibility category (S/I/R),host strain YMC14/08/R1169,R
same,antibiotic susceptibility S/I/R,host strain YMC14/08/T90,R
same,susceptibility category (S/I/R),host strain YMC14/08/T90,R
same,antibiotic susceptibility S/I/R,host strain YMC15/02/R436,R
same,susceptibility category (S/I/R),host strain YMC15/02/R436,R
same,antibiotic susceptibility S/I/R,host strain YMC15/02/T28,R
same,susceptibility category (S/I/R),host strain YMC15/02/T28,R
same,antibiotic susceptibility S/I/R,host strain YMC15/03/R1604,R
same,susceptibility category (S/I/R),host strain YMC15/03/R1604,R
same,antibiotic susceptibility S/I/R,host strain YMC15/09/R1869,R
same,susceptibility category (S/I/R),host strain YMC15/09/R1869,R
same,antibiotic susceptibility S/I/R,host strain YMC16/01/P11,R
same,susceptibility category (S/I/R),host strain YMC16/01/P11,R
same,antibiotic susceptibility S/I/R,host strain YMC16/01/R123,R
same,susceptibility category (S/I/R),host strain YMC16/01/R123,R
same,antibiotic susceptibility S/I/R,host strain YMC16/01/R198,R
same,susceptibility category (S/I/R),host strain YMC16/01/R198,R
same,antibiotic susceptibility S/I/R,host strain YMC16/01/R353,R
same,susceptibility category (S/I/R),host strain YMC16/01/R353,R
same,antibiotic susceptibility S/I/R,host strain YMC16/01/R380,R
same,susceptibility category (S/I/R),host strain YMC16/01/R380,R
same,antibiotic susceptibility S/I/R,host strain YMC16/01/R397,R
same,susceptibility category (S/I/R),host strain YMC16/01/R397,R
same,antibiotic susceptibility S/I/R,host strain YMC16/01/R405,R
same,susceptibility category (S/I/R),host strain YMC16/01/R405,R
same,antibiotic susceptibility S/I/R,host strain YMC16/03/R4461,R
same,susceptibility category (S/I/R),host strain YMC16/03/R4461,R
same,antibiotic susceptibility S/I/R,host strain YMC16/05/R2210,R
same,susceptibility category (S/I/R),host strain YMC16/05/R2210,R
same,antibiotic susceptibility S/I/R,host strain YMC16/07/R2512,R
same,susceptibility category (S/I/R),host strain YMC16/07/R2512,R
same,antibiotic susceptibility S/I/R,host strain YMC16/09/R2471,R
same,susceptibility category (S/I/R),host strain YMC16/09/R2471,R
same,antibiotic susceptibility S/I/R,host strain YMC16/10/R2537,R
same,susceptibility category (S/I/R),host strain YMC16/10/R2537,R
same,antibiotic susceptibility S/I/R,host strain YMC16/12/B11422,R
same,susceptibility category (S/I/R),host strain YMC16/12/B11422,R
same,antibiotic susceptibility S/I/R,host strain YMC16/12/B11449,R
same,susceptibility category (S/I/R),host strain YMC16/12/B11449,R
same,antibiotic susceptibility S/I/R,host strain YMC16/12/B13325,R
same,susceptibility category (S/I/R),host strain YMC16/12/B13325,R
same,antibiotic susceptibility S/I/R,host strain YMC16/12/P503,R
same,susceptibility category (S/I/R),host strain YMC16/12/P503,R
same,antibiotic susceptibility S/I/R,host strain YMC16/12/R4637,R
same,susceptibility category (S/I/R),host strain YMC16/12/R4637,R
same,antibiotic susceptibility S/I/R,host strain YMC17/01/B8053,R
same,susceptibility category (S/I/R),host strain YMC17/01/B8053,R
same,antibiotic susceptibility S/I/R,host strain YMC17/01/B10087,R
same,susceptibility category (S/I/R),host strain YMC17/01/B10087,R
same,antibiotic susceptibility S/I/R,host strain YMC17/01/B12075,R
same,susceptibility category (S/I/R),host strain YMC17/01/B12075,R
same,antibiotic susceptibility S/I/R,host strain YMC17/01/B13454,R
same,susceptibility category (S/I/R),host strain YMC17/01/B13454,R
same,antibiotic susceptibility S/I/R,host strain YMC17/01/P518,R
same,susceptibility category (S/I/R),host strain YMC17/01/P518,R
same,antibiotic susceptibility S/I/R,host strain YMC17/01/R2812,R
same,susceptibility category (S/I/R),host strain YMC17/01/R2812,R
same,antibiotic susceptibility S/I/R,host strain YMC17/02/B14,R
same,susceptibility category (S/I/R),host strain YMC17/02/B14,R
same,antibiotic susceptibility S/I/R,host strain YMC17/02/B87,R
same,susceptibility category (S/I/R),host strain YMC17/02/B87,R
same,antibiotic susceptibility S/I/R,host strain YMC17/02/B721,R
same,susceptibility category (S/I/R),host strain YMC17/02/B721,R
same,antibiotic susceptibility S/I/R,host strain YMC17/02/B4039,R
same,susceptibility category (S/I/R),host strain YMC17/02/B4039,R
same,antibiotic susceptibility S/I/R,host strain YMC17/02/B4520,R
same,susceptibility category (S/I/R),host strain YMC17/02/B4520,R
same,antibiotic susceptibility S/I/R,host strain YMC17/02/B4864,S
same,susceptibility category (S/I/R),host strain YMC17/02/B4864,S
same,antibiotic susceptibility S/I/R,host strain YMC17/02/B8414,R
same,susceptibility category (S/I/R),host strain YMC17/02/B8414,R
same,antibiotic susceptibility S/I/R,host strain YMC17/02/P523,R
same,susceptibility category (S/I/R),host strain YMC17/02/P523,R
same,antibiotic susceptibility S/I/R,host strain YMC17/02/R541,R
same,susceptibility category (S/I/R),host strain YMC17/02/R541,R
same,antibiotic susceptibility S/I/R,host strain YMC17/02/R2392,R
same,susceptibility category (S/I/R),host strain YMC17/02/R2392,R
same,antibiotic susceptibility S/I/R,host strain YMC17/03/B4730,R
same,susceptibility category (S/I/R),host strain YMC17/03/B4730,R
same,antibiotic susceptibility S/I/R,host strain YMC17/03/B5000,R
same,susceptibility category (S/I/R),host strain YMC17/03/B5000,R
same,antibiotic susceptibility S/I/R,host strain YMC17/03/P971,R
same,susceptibility category (S/I/R),host strain YMC17/03/P971,R
same,antibiotic susceptibility S/I/R,host strain YMC17/03/R348,R
same,susceptibility category (S/I/R),host strain YMC17/03/R348,R
same,antibiotic susceptibility S/I/R,host strain YMC17/03/R585,R
same,susceptibility category (S/I/R),host strain YMC17/03/R585,R
same,antibiotic susceptibility S/I/R,host strain YMC17/03/R1888,R
same,susceptibility category (S/I/R),host strain YMC17/03/R1888,R
same,antibiotic susceptibility S/I/R,host strain YMC17/03/R3279,R
same,susceptibility category (S/I/R),host strain YMC17/03/R3279,R
same,antibiotic susceptibility S/I/R,host strain YMC17/03/R4077,R
same,susceptibility category (S/I/R),host strain YMC17/03/R4077,R
same,antibiotic susceptibility S/I/R,host strain YMC17/03/R4607,R
same,susceptibility category (S/I/R),host strain YMC17/03/R4607,R
same,antibiotic susceptibility S/I/R,host strain YMC17/04/R488,R
same,susceptibility category (S/I/R),host strain YMC17/04/R488,R
same,antibiotic susceptibility S/I/R,host strain YMC17/04/R640,R
same,susceptibility category (S/I/R),host strain YMC17/04/R640,R
same,antibiotic susceptibility S/I/R,host strain YMC/17/05/R1095,R
same,susceptibility category (S/I/R),host strain YMC/17/05/R1095,R
